Data as given in PMC8071314, “Computational Design and Development of Benzodioxane-Benzamides as Potent Inhibitors of FtsZ by Exploring the Hydrophobic Subpocket” (Antibiotics, 2021).
Converted amounts (≈) assume the structure as drawn.

Columns and labels:
[1] = system: MSSA ATCC 29213 and MRSA ATCC 43300; test: MIC and MBC on methicillin-sensitive and methicillin-resistant S. aureus; type: cell-based, Staphylococcus aureus; settings: for fold more potent than inferior (methylenoxy) homolog: MRSA and MSSA, 1 vs VI, 2 vs VII, 3 vs V, 5 vs 4, 8 vs 7; for MIC / MBC: Staphylococcus aureus, MSSA ATCC 29213 and MRSA ATCC 43300; for MIC: lowest dose arresting bacterial growth; for MBC: minimal dose for irreversible block
Method: (§1) We first determined the minimal inhibitory concentration (MIC), i.e., the lowest compound dose (µM) arresting bacterial growth, and the minimal bactericidal concentration (MBC), i.e., the minimal dose (µM) of the compound required for an irreversible block, even after drug removal. Secondly, the derivatives having the most promising activities vs. MRSA were also tested on human MRC-5 cells, calculating their percentages of cytotoxicity by using the MTT assay. Cells were first incubated with each compound for 24 h, then the derivative was removed, and the cells were overlaid with MTT for an additional 3 h. After that time, DMSO replaced the MTT solution, and after 10 min the absorbance was measured at 570 nm. The percentage of cytotoxicity was defined by the formula [100 − (sample OD/untreated cells OD) × 100]. Table 2 reports TD90, defined as the compound concentration (µM) that reduced viability of MRC-5 cells by 90%. Moreover, we reported the therapeutic index (TI), as TD90 and MBC ratio.
The antibacterial activity was tested on both a methicillin-sensitive and a methicillin-resistant S. aureus strain, dissolving all the compounds in dimethyl sulfoxide (DMSO) and using fresh cell cultures at 10^5 cells/mL, in a final volume of 2 mL. The detailed protocol is identical to what was previously reported. Every assay was performed in quadruplicate, and for each series of experiments, both positive (no compounds) and negative (no bacteria) controls were included.

MRC-5 cells = test: MTT cytotoxicity assay on MRC-5 cells; type: cell-based, human; settings: concentration reducing viability of MRC-5 cells by 90%, 24 h incubation
Method: as §1
Compounds showing an antibacterial activity at a concentration lower than 10 μg/mL were serially diluted in DMEM and tested for cytotoxicity on MRC-5 cells by the MTT assay (Sigma, St Louis, MO, USA). Protocol was the same previously reported.

MDRSA 12.1 = test: MIC on multidrug resistant clinical S. aureus strain MDRSA 12.1 (EUCAST/CLSI); type: cell-based, Staphylococcus aureus; settings: for MIC: Staphylococcus aureus, MDRSA 12.1
Method: (§2) We tested 1–8 for their antimicrobial activity on different S. aureus strains (Table 2).
(§3) The antibacterial activities on MDRSA 11.7 and MDRSA 12.1 were performed following the European Committee on Antimicrobial Susceptibility Testing (EUCAST) recommendations and Clinical and Laboratory Standards Institute (CLSI) guidelines, as detailed before. Tetracycline was used as a positive control on every assay plate.

MDRSA 11.7 = test: MIC on multidrug resistant clinical S. aureus strain MDRSA 11.7 (EUCAST/CLSI); type: cell-based; settings: Staphylococcus aureus
Method: as §2, §3

MSSA ATCC29213 = system: MSSA ATCC29213; parameters: method as in PMID 25462242, PMID 27191617, PMID 31750973, PMID 28586174, PMID 32260339; settings: Figure 1; cited from earlier work
[2] = system: B. subtilis strain WM5126; test: Spot viability assay on LB plates; type: cell-based; settings: Bacillus subtilis, spotted on LB plates with 0, 0.03, 0.06, 0.1 or 1 µg/mL compound
Method: The promising properties of these new compounds prompted us to test them on B. subtilis, a model Gram-positive species used previously in evaluating other benzamides, such as 8j, the benzothiazole derivative of PC190723 [28]. We chose derivatives 1, 5, and 8, which had the lowest MICs on S. aureus and because they were representative of different substituents on the benzodioxane scaffold. B. subtilis strain WM5126 was grown until early log phase, and then 1 × and 10 × dilutions of the culture were spotted onto LB plates containing 0, 0.03, 0.06, 0.1, or 1 µg/mL final concentration of the compounds.
The two B. subtilis strains used were WM3612 (JH642 amyE::Pxyl-gfp-gp56), described in Bhambani et al., and WM5126 (JH642 amyE::Pxyl-gfp-zapA), which is the same as strain FG347 [29]. For spot viability assays on plates, compounds were diluted from DMSO stocks into molten LB agar as described above and mixed well before solidifying. WM3612 cultures were grown to early exponential phase in LB broth at 37 °C, then spotted directly or after 1:10 dilution into LB onto LB plates containing various concentrations of compounds. After allowing spots to air dry, plates were then incubated overnight at 34 °C and photographed.

[3] = system: B. subtilis FtsZ rings (strain WM5126, GFP-ZapA); test: Fluorescence microscopy of GFP-ZapA (Z ring) localization; type: cell-based, Bacillus subtilis; settings: 1 h exposure
Method: (yellow arrows in Figure 5 highlight normal sharp bands at the future division sits). On the contrary, in cells treated with compounds 7 and 8, we observed GFP-ZapA forming many (0.4 µg/mL 7) or nearly all (0.8 µg/mL 7 or 0.4 µg/mL 8) foci or focal clusters (white arrows in Figure 5), and abnormal cell elongation is clearly evident. The perturbation of Z rings and cell elongation is similar to the previously described effects of 8j.
For fluorescence microscopy, overnight cultures of WM5126 were grown at […] (after 1:200 dilution of overnight and addition of 0.1% xylose to induce expression of GFP-ZapA) for ~2 h until reaching an OD600 of ~0.2, then treated with no drug or with compounds 7 or 8 diluted in water from stock solutions of 40 mg/mL (8) or 27 mg/mL (7) in DMSO. Those dilutions (40 µg/mL in water) were then added at 1:100 or 1:50 to the cultures and grown for 1 h shaking at 33 °C prior to spotting on a thin layer of 1% agarose in phosphate buffered saline. Cells were imaged with differential interference contrast (DIC) and fluorescence using an Olympus BX100 fitted with a 100 × Plan Apochromat objective (N.A. 1.4) and a GFP filter set (Chroma). Images were acquired with CellSens software (Olympus) and DIC, and fluorescent images of the same field were overlaid using ImageJ [31].
Figure 5 Effect of compounds 7 and 8 on B. subtilis Z rings. B. subtilis strain WM5126 was induced with 0.1% xylose to express GFP-ZapA, then exposed to compounds 7 or 8 for 1 h during exponential growth at 37 °C prior to imaging by DIC and fluorescence. Yellow arrows indicate normal sharp rings at the future division site, while white arrows indicate abnormal foci or clusters. Scale bar, 5 µm.

| SMILES | fold more potent than inferior (methylenoxy) homolog [1] | MIC [1] [µM] | MBC [1] [µM] | TD90 (MRC-5 cells) [µM] | times more active than inferior homolog (MDRSA 12.1; MDRSA, 3 vs V) | MIC (MDRSA 12.1) [µM] | MIC (MDRSA 11.7) [µM] | MIC (MSSA ATCC29213) [µM] | MIC [2] [µg/mL] | GFP-ZapA forming foci or focal clusters ([3]; 0.4 µg/mL) | melting point [°C] | GFP-ZapA forming foci or focal clusters ([3]; 0.8 µg/mL) |
| --- | --- | --- | --- | --- | --- | --- | --- | --- | --- | --- | --- | --- |
| CSc1nc(-c2ccc3c(c2)OC(CCOc2ccc(F)c(C(N)=O)c2F)CO3)no1 (stereo not drawn) [Compound 3, 3-[2-(7-(5-methylthio-1,2,4-oxadiazol-3-yl)-1,4-benzodioxan-2-yl)ethyloxy]-2,6-difluorobenzamide] | three | 0.5 (≈ 0.225 µg/mL) | 0.5 (≈ 0.225 µg/mL) | 1668 | two | 1.1 (≈ 0.494 µg/mL) | 1.1 (≈ 0.494 µg/mL) | – | – | – | – | – |
| NC(=O)c1c(F)ccc(OCc2nc3cc(Cl)cnc3s2)c1F [PC190723] | – | – | – | – | – | – | – | 2.8 (≈ 0.996 µg/mL) | – | – | – | – |
| CSc1nc(-c2ccc3c(c2)OC(COc2ccc(F)c(C(N)=O)c2F)CO3)no1 (stereo not drawn) [V, reference compound] | – | 1.4 (≈ 0.61 µg/mL) | 1.4 (≈ 0.61 µg/mL) | 1700 | – | < 2.3 | < 2.3 | 1.4 (≈ 0.61 µg/mL) | – | – | – | – |
| NC(=O)c1c(F)ccc(OCCCOc2ccc3ccccc3c2)c1F [Compound 6] | – | 14 (≈ 5 µg/mL) | 14 (≈ 5 µg/mL) | >2238 | – | 11.2 (≈ 4 µg/mL) | 11.2 (≈ 4 µg/mL) | – | – | – | – | – |
| NC(=O)c1c(F)ccc(OCC2COc3ccccc3O2)c1F (stereo not drawn) [I, reference compound] | – | 15.6 (≈ 5.01 µg/mL) | 249 (≈ 80 µg/mL) | 49.8 | – | 24.9 (≈ 8 µg/mL) | 49.8 (≈ 16 µg/mL) | 15.6 (≈ 5.01 µg/mL) | – | – | – | – |
| NC(=O)c1c(F)ccc(OCCC2COc3cc4c(cc3O2)CCCC4)c1F (stereo not drawn) [Compound 8, 3-[2-(2,3,6,7,8,9-hexahydronaphtho[2,3-b][1,4]dioxin-2-yl)ethoxy]-2,6-difluorobenzamide] | 50 fold | 0.25 (≈ 0.0973 µg/mL) | 0.25 (≈ 0.0973 µg/mL) | 2054 | – | 0.3 (≈ 0.117 µg/mL) | 0.3 (≈ 0.117 µg/mL) | – | < 0.1 | nearly all | 166.5 | – |
| NC(=O)c1c(F)ccc(OCC2COc3cc4ccccc4cc3O2)c1F (stereo not drawn) [Compound 4, 3-[(2,3-dihydronaphtho[2,3-b][1,4]dioxin-2-yl)methoxy]-2,6-difluorobenzamide] | – | 7.1 (≈ 2.64 µg/mL) | 7.1 (≈ 2.64 µg/mL) | >2276 | – | 11.4 (≈ 4.23 µg/mL) | 11.4 (≈ 4.23 µg/mL) | – | – | – | – | – |
| CCc1nc(-c2ccc3c(c2)OC(COc2ccc(F)c(C(N)=O)c2F)CO3)no1 (stereo not drawn) [VII, reference compound] | – | 6 (≈ 2.5 µg/mL) | 6 (≈ 2.5 µg/mL) | >1916 | – | 4.8 (≈ 2 µg/mL) | 9.6 (≈ 4.01 µg/mL) | 6.0 (≈ 2.5 µg/mL) | – | – | – | – |
| CCc1nc(-c2ccc3c(c2)OC(CCOc2ccc(F)c(C(N)=O)c2F)CO3)no1 (stereo not drawn) [Compound 2] | 10 fold | 0.6 (≈ 0.259 µg/mL) | 0.6 (≈ 0.259 µg/mL) | 1854 | – | 0.6 (≈ 0.259 µg/mL) | 0.6 (≈ 0.259 µg/mL) | – | – | – | – | – |
| NC(=O)c1c(F)ccc(OCCCC2COc3ccccc3O2)c1F (stereo not drawn) [III] | – | – | – | – | – | – | – | 28.6 (≈ 9.99 µg/mL) | – | – | – | – |
| COC(=O)c1ccc2c(c1)OC(COc1ccc(F)c(C(N)=O)c1F)CO2 (stereo not drawn) [IV] | – | – | – | – | – | – | – | 1.6 (≈ 0.607 µg/mL) | – | – | – | – |
| NC(=O)c1c(F)ccc(OCCC2COc3ccccc3O2)c1F (stereo not drawn) [II, reference compound] | – | 14.9 (≈ 5 µg/mL) | 14.9 (≈ 5 µg/mL) | 226 | – | 11.9 (≈ 3.99 µg/mL) | 11.9 (≈ 3.99 µg/mL) | 14.9 (≈ 5 µg/mL) | – | – | – | – |
| NC(=O)c1c(F)ccc(OCC2COc3cc4c(cc3O2)CCCC4)c1F (stereo not drawn) [Compound 7] | – | 13.3 (≈ 4.99 µg/mL) | 13.3 (≈ 4.99 µg/mL) | 200 | – | 5.3 (≈ 1.99 µg/mL) | 10.7 (≈ 4.02 µg/mL) | – | – | many | – | nearly all |
| Cc1nc(-c2ccc3c(c2)OC(COc2ccc(F)c(C(N)=O)c2F)CO3)no1 (stereo not drawn) [VI, reference compound] | – | 6.2 (≈ 2.5 µg/mL) | 6.2 (≈ 2.5 µg/mL) | >1983 | – | 5 (≈ 2.02 µg/mL) | 9.9 (≈ 3.99 µg/mL) | 6.2 (≈ 2.5 µg/mL) | – | – | – | – |
| Cc1nc(-c2ccc3c(c2)OC(CCOc2ccc(F)c(C(N)=O)c2F)CO3)no1 (stereo not drawn) [Compound 1, 3-[2-(7-(5-methyl-1,2,4-oxadiazol-3-yl)-1,4-benzodioxan-2-yl)ethyloxy]-2,6-difluorobenzamide] | 5 fold | 1.2 (≈ 0.501 µg/mL) | 1.2 (≈ 0.501 µg/mL) | >1910 | – | 1.2 (≈ 0.501 µg/mL) | 1.2 (≈ 0.501 µg/mL) | – | 0.1 to 1 (≈ 0.24 to 2.4 µM) | – | – | – |
| NC(=O)c1c(F)ccc(OCCC2COc3cc4ccccc4cc3O2)c1F (stereo not drawn) [Compound 5, 3-[2-(2,3-dihydronaphtho[2,3-b][1,4]dioxin-2-yl)ethoxy]-2,6-difluorobenzamide] | 12 fold | 0.6 (≈ 0.231 µg/mL) | 0.6 (≈ 0.231 µg/mL) | 233 | – | 0.6 (≈ 0.231 µg/mL) | 1.3 (≈ 0.501 µg/mL) | – | < 0.1 | – | – | – |
| NC(=O)c1c(F)ccc(OCc2nc3cc(Cl)ccc3s2)c1F [Compound 8j] | – | – | – | – | – | – | – | 0.70 (≈ 0.248 µg/mL) | – | – | – | – |
